From patent publication US8865734B2 (priority 2010, dated 2014)
Converted amounts (≈) assume the structure as drawn.

Legend:
[1] = system: M. tuberculosis inside the host macrophage; test: QIM: Quantification of Intracellular Mycobacteria (intracellular growth assay, phenotypic cell-based); conditions: MIC, 80% bacterial growth inhibition, intracellular growth; for MIC: Mycobacterium tuberculosis, read-out: QIM
Method in brief: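 Dose-response testing of intracellular mycobacterial replication in infected macrophages, a cell-based screening format; MIC is defined as the lowest concentration achieving 80% inhibition of bacterial growth.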

[2] = system: in vitro grown Mycobacteria (M. tuberculosis); test: QUM: Quantification of in vitro grown Mycobacteria (in vitro growth fluorescence assay); type: cell-based; conditions: MIC, 80% bacterial growth inhibition, in vitro growth; for MIC: Mycobacterium tuberculosis, read-out: QUM
Method in brief: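 Mycobacterium tuberculosis grown in vitro was quantified by fluorescence across compound dose responses. MIC is defined as the minimum concentration producing 80% growth inhibition.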

SMILES | MIC [1] [µM] | MIC [2] [µM] | QIM (μM) [1] | QUM (μM) [2]
CCc1nc2ccc(Cl)cn2c1C(=O)NCc1ccc(-c2ccc(Cl)cc2)cc1 [Compound 83, 6-Chloro-N-((4′-chlorobiphenyl-4-yl)methyl)-2-ethylimidazo[1,2-a]pyridine-3-carboxamide] | < 1 | < 1 |  | 
Cc1nc2ccccn2c1C(=O)NCC1CCN(C(=O)OC(C)(C)C)CC1 [Compound 19, tert-Butyl 4-((2-methylimidazo[1,2-a]pyridine-3-carboxamido)methyl)piperidine-1-carboxylate] | > 20 | > 20 |  | 
Cc1nc2ccc(Cl)cn2c1C(=O)NCc1ccc(OC(F)(F)F)cc1 [Compound 154, 6-Chloro-2-methyl-N-(4-(trifluoromethoxy)benzyl)imidazo[1,2-a]pyridine-3-carboxamide] | 1 to 20 (≈ 0.384 to 7.68 µg/mL) | < 1 |  | 
CCc1nc2ccc(Cl)cn2c1C(=O)NCc1ccc(-c2ccccc2C(F)(F)F)cc1 [Compound 123, 6-Chloro-2-ethyl-N-((2′-(trifluoromethyl)biphenyl-4-yl)methyl)imidazo[1,2-a]pyridine-3-carboxamide] | < 1 | 1 to 20 (≈ 0.458 to 9.16 µg/mL) |  | 
CCCCCC(=O)NCc1ccc(-c2ccc(CNC(=O)c3c(CC)nc4cc(Cl)ccn34)cc2)cc1 [Compound 184, 7-Chloro-2-ethyl-N-((4′-(hexanamidomethyl)biphenyl-4-yl)methyl)imidazo[1,2-a]pyridine-3-carboxamide] | < 1 | < 1 |  | 
CCc1nc2cc(Cl)ccn2c1C(=O)NCc1ccc(-c2ccccc2C)cc1 [Compound 96, 7-Chloro-2-ethyl-N-((2′-methylbiphenyl-4-yl)methyl)imidazo[1,2-a]pyridine-3-carboxamide] | < 1 | < 1 |  | 
CCc1nc2ccc(Br)cn2c1C(=O)NCc1ccc(OC(F)(F)F)cc1 [Compound 152, 6-Bromo-2-ethyl-N-(4-(trifluoromethoxy)benzyl)imidazo[1,2-a]pyridine-3-carboxamide] | < 1 | < 1 |  | 
CCc1nc2cc(Cl)ccn2c1C(=O)NCc1ccc(-c2ccc(F)cc2)cc1 [Compound 116, 7-Chloro-2-ethyl-N-((4′-fluorobiphenyl-4-yl)methyl)imidazo[1,2-a]pyridine-3-carboxamide] | < 1 | < 1 |  | 
CCc1nc2cc(Cl)ccn2c1C(=O)NCc1ccn(-c2ccc(C(F)(F)F)cc2)n1 [Compound 234, 7-Chloro-2-ethyl-N-((1-(4-(trifluoromethyl)phenyl)-1H-pyrazol-3-yl)methyl)imidazo[1,2-a]pyridine-3-carboxamide] | 1 to 20 (≈ 0.448 to 8.96 µg/mL) | 1 to 20 (≈ 0.448 to 8.96 µg/mL) |  | 
CCc1nc2ccccn2c1C(=O)NCc1ccc(N(C)Cc2ccc(OC(F)(F)F)cc2)cc1 [Compound 263, 2-Ethyl-N-(4-(methyl(4-(trifluoromethoxy)benzyl)amino)benzyl)imidazo[1,2-a]pyridine-3-carboxamide] | < 1 | < 1 |  | 
CCc1nc2ccc(Cl)cn2c1C(=O)NCc1ccc(OC(F)(F)F)cc1 [Compound 72] | < 1 | < 1 |  | 
CCc1nc2ccc(Cl)cn2c1C(=O)NCc1ccc(-c2ccc(C)cc2)cc1 [Compound 86, 6-Chloro-2-ethyl-N-((4′-methylbiphenyl-4-yl)methyl)imidazo[1,2-a]pyridine-3-carboxamide] | < 1 | < 1 |  | 
CCc1nc2cc(N3CCN(c4ccc(F)cc4)CC3)ccn2c1C(=O)NCc1ccc(N2CCOCC2)cc1 [Compound 329, 2-Ethyl-7-(4-(4-fluorophenyl)piperazin-1-yl)-N-(4-morpholinobenzyl)imidazo[1,2-a]pyridine-3-carboxamide] | > 20 | > 20 |  | 
CCc1nc2cc(Cl)ccn2c1C(=O)NCc1ccn(-c2ccc(OC(F)(F)F)cc2)n1 [Compound 232, 7-Chloro-2-ethyl-N-((1-(4-(trifluoromethoxy)phenyl)-1H-pyrazol-3-yl)methyl) imidazo[1,2-a]pyridine-3-carboxamide] |  |  | ++ (++ indicates between 1-20 uM) | ++ (++ indicates between 1-20 uM)
CCc1nc2cc(N3CCNCC3)ccn2c1C(=O)NCc1ccc(C(C)(C)C)cc1 [Compound 145, N-(4-tert-Butylbenzyl)-2-ethyl-7-(piperazin-1-yl)imidazo[1,2-a]pyridine-3-carboxamide] | > 20 | > 20 |  | 
Cc1nc2ccc(Cl)cn2c1C(=O)NCc1ccc(-c2ccccc2)cc1 [Compound 44] | < 1 | < 1 |  | 
Cc1nc2ccc(-c3ccccc3)cn2c1C(=O)NCc1ccccc1 [Compound 38, N-Benzyl-2-methyl-6-phenylimidazo[1,2-a]pyridine-3-carboxamide] | > 20 | > 20 |  | 
CCc1nc2ccc(Cl)cn2c1C(=O)NCc1ccn(-c2ccc(OC(F)(F)F)cc2)n1 [Compound 231, 6-Chloro-2-ethyl-N-((1-(4-(trifluoromethoxy)phenyl)-1H-pyrazol-3-yl)methyl) imidazo[1,2-a]pyridine-3-carboxamide] | < 1 | < 1 |  | 

SMILES | MIC [1] [µM] | MIC [2] [µM] | QIM (μM) [1] | QUM (μM) [2]
CCc1nc2ccc(C)cn2c1C(=O)NCc1ccc(-c2ccccc2)cc1 [Compound 62, N-(Biphenyl-4-ylmethyl)-2-ethyl-6-methylimidazo[1,2-a]pyridine-3-carboxamide] | < 1 | < 1 |  | 
CCc1nc2cc(Cl)ccn2c1C(=O)NCc1ccc(-c2ccccc2C#N)cc1 [Compound 126, 7-Chloro-N-((2′-cyanobiphenyl-4-yl)methyl)-2-ethylimidazo[1,2-a]pyridine-3-carboxamide] | 1 to 20 (≈ 0.415 to 8.3 µg/mL) | < 1 |  | 
COc1ccc(CNC(=O)c2c(C)nc3ccccn23)cc1 [Compound 12, N-(4-Methoxybenzyl)-2-methylimidazo[1,2-a]pyridine-3-carboxamide] | 1 to 20 (≈ 0.295 to 5.91 µg/mL) | 1 to 20 (≈ 0.295 to 5.91 µg/mL) |  | 
CCc1nc2ccc(Cl)cn2c1C(=O)NCC1CCCc2c1cnn2-c1ccc(OC(F)(F)F)cc1 (stereo not shown) [Compound 237, 6-Chloro-2-ethyl-N-((1-(4-(trifluoromethoxy)phenyl)-4,5,6,7-tetrahydro-1,1-indazol-4-yl)methyl)imidazo[1,2-a]pyridine-3-carboxamide] | > 20 | > 20 |  | 
CCc1nc2cc(Cl)ccn2c1C(=O)NCc1ccc(Nc2ccc(OC(F)(F)F)cc2)cc1 [Compound 199, 7-Chloro-2-ethyl-N-(4-(4-(trifluoromethoxy)phenylamino)benzyl)imidazo[1,2-a]pyridine-3-carboxamide] | < 1 | < 1 |  | 
CCc1nc2cc(Cl)ccn2c1C(=O)NCc1ccc2[nH]c(CN3CCOCC3)nc2c1 [Compound 206, 7-Chloro-2-ethyl-N-((2-(morpholinomethyl)-1H-benzo[d]imidazol-5-yl)methyl) imidazo[1,2-a]pyridine-3-carboxamide] | > 20 | > 20 |  | 
CCc1nc2ccc(Cl)cn2c1C(=O)NCc1ccn(-c2ccc(C(F)(F)F)cc2)n1 [Compound 233, 6-Chloro-2-ethyl-N-4-((1-(4-(trifluoromethyl)phenyl)-1H-pyrazol-3-yl)methyl)imidazo[1,2-a]pyridine-3-carboxamide] | > 20 | > 20 |  | 
CCCC(=O)NCc1ccc(-c2ccc(CNC(=O)c3c(CC)nc4cc(Cl)ccn34)cc2)cc1 [Compound 159, N-((4′-(Butyramidomethyl)biphenyl-4-yl)methyl)-7-chloro-2-ethylimidazo[1,2-a]pyridine-3-carboxamide] | < 1 | < 1 |  | 
CCc1nc2cc(Cl)ccn2c1-c1nnc(CN2CCN(c3ccc(OC(F)(F)F)cc3)CC2)o1 [Compound 244, 2-(7-Chloro-2-ethylimidazo[1,2-a]pyridin-3-yl)-5-((4-(4-(trifluoromethoxy)phenyl)piperazin-1-yl)methyl)-1,3,4-oxadiazole] | 1 to 20 (≈ 0.507 to 10.1 µg/mL) | 1 to 20 (≈ 0.507 to 10.1 µg/mL) |  | 
CCc1nc2ccc(Cl)cn2c1C(=O)NCc1ccc(-c2cccc(C#N)c2)cc1 [Compound 127, 6-Chloro-N-((3′-cyanobiphenyl-4-yl)methyl)-2-ethylimidazo[1,2-a]pyridine-3-carboxamide] | < 1 | > 20 |  | 
CCc1nc2cc(Cl)ccn2c1NC(=O)c1ccc(-c2ccccc2)cc1 [Compound 142, N-(7-Chloro-2-ethylimidazo[1,2-a]pyridin-3-yl)biphenyl-4-carboxamide] | > 20 | > 20 |  | 
COc1cccn2c(C(=O)NCc3ccccc3)c(C)nc12 [Compound 41, N-Benzyl-8-methoxy-2-methylimidazo[1,2-a]pyridine-3-carboxamide] | > 20 | > 20 |  | 
CCc1nc2ccc(Cl)cn2c1C(=O)NCC1CCCc2c1cnn2-c1ccc(F)cc1 (stereo not shown) [Compound 238, 6-Chloro-2-ethyl-N-((1-(4-fluorophenyl)-4,5,6,7-tetrahydro-1H-indazol-4-yl)methyl) imidazo[1,2-a]pyridine-3-carboxamide] | > 20 | > 20 |  | 
CCc1nc2ccccn2c1C(=O)NCc1ccc(OC(C)C)cc1 [Compound 60, 2-Ethyl-N-(4-isopropoxybenzyl)imidazo[1,2-a]pyridine-3-carboxamide] | < 1 | < 1 |  | 
CCc1nc2ccc(Cl)cn2c1C(=O)NCc1ccc(N2CCC(Oc3ccc(OC(F)(F)F)cc3)CC2)cc1 [Compound 139, 6-Chloro-2-ethyl-N-(4-(4-(4-(trifluoromethoxy)phenoxy)piperidin-1-yl)benzyl)imidazo-[1,2-a]pyridine-3-carboxamide] | < 1 | < 1 |  | 
CCc1nc2ccc(Cl)cn2c1C(=O)NCc1ccc(N2CCN(Cc3ccc(F)cc3)CC2)cc1 [Compound 171, 6-Chloro-2-ethyl-N-(4-(4-(4-fluorobenzyl)piperazin-1-yl)benzyl)imidazo[1,2-a]pyridine-3-carboxamide] | < 1 | < 1 |  | 
CCc1nc2ccccn2c1C(=O)NCc1ccc2c(ccn2C)c1 [Compound 56, 2-Ethyl-N-((1-methyl-1H-indol-5-yl)methyl)imidazo[1,2-a]pyridine-3-carboxamide] | < 1 | < 1 |  | 
